According to patent publication US6706727B1, “Macrolides” (Novartis AG, priority 2002, dated 2004):

Tested on: CD4+ antigen-specific human helper T-cell clone (TCC)
Assay: Antigen-specific stimulation of the helper T-cell clone (TCC) by monocyte-derived dendritic cells, T-cell proliferation (3H-thymidine)
Assay type: cell-based
Conditions: Dpt-pulsed M-DC, M-DC/T-cell ratio 1/50, 4 day culture
Text: This activity is further evidenced in additional testing with the above helper T-cell clone and monocyte-derived dendritic cells:
The CD4^+ antigen-specific human helper T-cell clone (TCC) is established by limiting dilution culture (Van Reijsen T. C. et al, J. Allergy Clin. Immunol. 90 [1992] 184-193). The TCC recognizes a peptide derived from the major allergen Der p1 of the house dust mite Dermatophagoides pteronyssinus (Dpt) in association with the MHC class II restriction molecule HLA-DPw4 (Baselmnns P. J. et al., Human Immunol. 61 [2000] 789-798). To obtain sufficient cell numbers for assay purposes, the TCC is expanded in vitro by activation with immobilized anti-CD3 monoclonal antibody (Leu4, Becton Dickinson, San Jose, Calif., USA) and culture in complete medium supplemented with rIL-2 and rhIL-4 (50 U/ml each) (Van Reijsen et al., supra).
Human monocyte-derived dendritic cells (M-DC) are generated from purified monocytes by culturing in RPMI 1640 culture medium at a cell density of 7×10^5 cells/ml. The culture medium is supplemented with 15% FCS and rh-GM-CSF (300 U/ml) and rh-IL-4 (100 U/ml). At day 7 of culture, 90-95% of the cells express the phenotype of M-DC as verified by flow cytometry and they are used for antigen-specific stimulation of the TCC, which is used at least 14 days after the last challenge by antigen or anti-CD3 mAb to ensure a resting state of the cells. For antigen-specific stimulation, the M-DC are incubated overnight (at least 12 h) in culture medium containing 50 μ/ml of the extract of Dpt (ARTU Biologicals NV, Lelystad, The Netherlands). The content of the major allergen Der p1 used is about 18.5 μg/mg of Dpt extract. The M-DC are washed twice and 50 μl aliquots of the final number of M-DC are added to 5×10^4 T-cells per well in 100 μl medium, giving a M-DC/T-cell ratio of 1/50. Immediately thereafter, 50 μl aliquots of a four-fold final concentration of test compound are added. Each sample is tested in quadruplicate. The test compound is dissolved in ethanol to provide a stock solution of 1 mM and diluted 1/1000 in the complete culture medium that is also used to prepare the final test compound dilution. T-cell proliferation is determined by pulsing with 1 μCi/20 μl/well of (methyl-)^3H-thymidine (Amersham, U.K) during the final 16 hours of a 4 day culture period.

## CC[C@@H]1C[C@H](OC)[C@@H]2O[C@@]1(O)C(=O)C(=O)N1CCCC[C@H]1C(=O)O[C@H](/C(C)=C/[C@@H]1CC[C@H](Cl)[C@H](OC)C1)[C@H](C)[C@@H](O)CC(=O)[C@H](CC)/C=C(\C)C[C@H](C)C[C@@H]2OC [Compound 27-ethyl-ASM]
  IC50: 4.6 nM

## CC[C@H]1C/C(C)=C/[C@@H](CC)C(=O)C[C@H](O)[C@@H](C)[C@@H](/C(C)=C/[C@@H]2CC[C@@H](O)[C@H](OC)C2)OC(=O)[C@@H]2CCCCN2C(=O)C(=O)[C@]2(O)O[C@H]([C@@H](OC)C1)[C@@H](OC)C[C@H]2C [21-ethyl-ascomycin]
  IC50: 0.33 nM

## CC/C1=C\[C@@H](CC)C(=O)C[C@H](O)[C@@H](C)[C@@H](/C(C)=C/[C@@H]2CC[C@H](Cl)[C@H](OC)C2)OC(=O)[C@@H]2CCCCN2C(=O)C(=O)[C@]2(O)O[C@H]([C@@H](OC)C[C@@H](C)C1)[C@@H](OC)C[C@H]2C [Compound 19-ethyl-ASM]
  IC50: 6.8 nM

## CC[C@H]1C/C(C)=C/[C@@H](CC)C(=O)C[C@H](O)[C@@H](C)[C@@H](/C(C)=C/[C@@H]2CC[C@H](Cl)[C@H](OC)C2)OC(=O)[C@@H]2CCCCN2C(=O)C(=O)[C@]2(O)O[C@H]([C@@H](OC)C1)[C@@H](OC)C[C@H]2C [Compound 21-ethyl-ASM]
  IC50: 1.6 nM

## CC[C@@H]1C[C@H](OC)[C@@H]2O[C@@]1(O)C(=O)C(=O)N1CCCC[C@H]1C(=O)O[C@H](/C(C)=C/[C@@H]1CC[C@@H](O)[C@H](OC)C1)[C@H](C)[C@@H](O)CC(=O)[C@H](CC)/C=C(\C)C[C@H](C)C[C@@H]2OC [27-ethyl-ascomycin]
  IC50: 0.88 nM
